Measured values from the supplement of paper PMC10307832.

Experiments:
Experiment in all cases: relative viability (nuclei count vs DMSO), 5 days (fraction); higher = more cells survive
Afatinib + Palbociclib = compound: CN(C)C/C=C/C(=O)Nc1cc2c(Nc3ccc(F)c(Cl)c3)ncnc2cc1O[C@H]1CCOC1 [Afatinib] + CC(=O)c1c(C)c2cnc(Nc3ccc(N4CCNCC4)cn3)nc2n(C2CCCC2)c1=O [Palbociclib] (partner 0.5 µM)
How it was run: (§1)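 Dosing by pin tool came one day after lung cancer cell lines were seeded in 1536-well plates, using either one drug or a fixed anchor-drug dose plus five library-drug doses (not always all listed) in √10 steps. After 5 days, nuclei were counted on 4× images. Relative viability is treated-well nuclei count divided by vehicle-well nuclei count, and values are medians of duplicate plates.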

Afatinib + Bortezomib = compound: CN(C)C/C=C/C(=O)Nc1cc2c(Nc3ccc(F)c(Cl)c3)ncnc2cc1O[C@H]1CCOC1 [Afatinib] + CC(C)C[C@H](NC(=O)[C@H](Cc1ccccc1)NC(=O)c1cnccn1)B(O)O [Bortezomib] (partner 0.002 µM)
How it was run: as §1

Afatinib + Foretinib = compound: CN(C)C/C=C/C(=O)Nc1cc2c(Nc3ccc(F)c(Cl)c3)ncnc2cc1O[C@H]1CCOC1 [Afatinib] + COc1cc2c(Oc3ccc(NC(=O)C4(C(=O)Nc5ccc(F)cc5)CC4)cc3F)ccnc2cc1OCCCN1CCOCC1 [Foretinib] (partner 0.25 µM)
How it was run: as §1

Afatinib + Pictilisib = compound: CN(C)C/C=C/C(=O)Nc1cc2c(Nc3ccc(F)c(Cl)c3)ncnc2cc1O[C@H]1CCOC1 [Afatinib] + CS(=O)(=O)N1CCN(Cc2cc3nc(-c4cccc5[nH]ncc45)nc(N4CCOCC4)c3s2)CC1 [Pictilisib] (partner 1 µM)
How it was run: as §1

In the case of ChaGo-K-1, the relative viability (Afatinib + Palbociclib; first compound 0.005 µM) is reported as 0.932, the relative viability (Afatinib + Palbociclib; first compound 0.01581 µM) is reported as 0.977 and the relative viability (Afatinib + Palbociclib; first compound 0.05 µM) is reported as 0.977. The relative viability (Afatinib + Palbociclib; first compound 0.1581 µM) was 0.864, the relative viability (Afatinib + Palbociclib; first compound 0.5 µM) was 0.96 and the relative viability (Afatinib + Bortezomib; first compound 0.005 µM) was 1.18. The relative viability (Afatinib + Bortezomib; first compound 0.01581 µM) was 0.92, the relative viability (Afatinib + Bortezomib; first compound 0.05 µM) was 0.8 and the relative viability (Afatinib + Bortezomib; first compound 0.1581 µM) was 0.924. The relative viability (Afatinib + Bortezomib; first compound 0.5 µM) was 1.07, the relative viability (Afatinib + Foretinib; first compound 0.005 µM) was 0.86 and the relative viability (Afatinib + Foretinib; first compound 0.01581 µM) was 0.882. It also gave a relative viability (Afatinib + Foretinib; first compound 0.05 µM) of 0.876, a relative viability (Afatinib + Foretinib; first compound 0.1581 µM) of 0.86 and a relative viability (Afatinib + Foretinib; first compound 0.5 µM) of 0.846. For the same cell line, the relative viability (Afatinib + Pictilisib; first compound 0.005 µM) was 0.893, the relative viability (Afatinib + Pictilisib; first compound 0.01581 µM) was 0.45 and the relative viability (Afatinib + Pictilisib; first compound 0.05 µM) was 0.757. For the same cell line, the relative viability (Afatinib + Pictilisib; first compound 0.1581 µM) was 0.583 and the relative viability (Afatinib + Pictilisib; first compound 0.5 µM) was 0.88.

EKVX was tested, and the relative viability (Afatinib + Palbociclib; first compound 0.005 µM) was 0.317, the relative viability (Afatinib + Palbociclib; first compound 0.01581 µM) was 0.265 and the relative viability (Afatinib + Palbociclib; first compound 0.05 µM) was 0.188. It also gave a relative viability (Afatinib + Palbociclib; first compound 0.1581 µM) of 0.147, a relative viability (Afatinib + Palbociclib; first compound 0.5 µM) of 0.141 and a relative viability (Afatinib + Bortezomib; first compound 0.005 µM) of 0.811. The relative viability (Afatinib + Bortezomib; first compound 0.01581 µM) was 0.655, the relative viability (Afatinib + Bortezomib; first compound 0.05 µM) was 0.468 and the relative viability (Afatinib + Bortezomib; first compound 0.1581 µM) was 0.308. For the same cell line, the relative viability (Afatinib + Bortezomib; first compound 0.5 µM) was 0.199, the relative viability (Afatinib + Foretinib; first compound 0.005 µM) was 0.838 and the relative viability (Afatinib + Foretinib; first compound 0.01581 µM) was 0.428. The relative viability (Afatinib + Foretinib; first compound 0.05 µM) was 0.453, the relative viability (Afatinib + Foretinib; first compound 0.1581 µM) was 0.129 and the relative viability (Afatinib + Foretinib; first compound 0.5 µM) was 0.318. For the same cell line, the relative viability (Afatinib + Pictilisib; first compound 0.005 µM) was 0.391, the relative viability (Afatinib + Pictilisib; first compound 0.01581 µM) was 0.346 and the relative viability (Afatinib + Pictilisib; first compound 0.05 µM) was 0.203. The relative viability (Afatinib + Pictilisib; first compound 0.1581 µM) was 0.118 and the relative viability (Afatinib + Pictilisib; first compound 0.5 µM) was 0.104.

Cell Line EMC-BAC-2 has a relative viability (Afatinib + Palbociclib; first compound 0.005 µM) of 0.539, a relative viability (Afatinib + Palbociclib; first compound 0.01581 µM) of 0.531 and a relative viability (Afatinib + Palbociclib; first compound 0.05 µM) of 0.551. It also gave a relative viability (Afatinib + Palbociclib; first compound 0.1581 µM) of 0.498, a relative viability (Afatinib + Palbociclib; first compound 0.5 µM) of 0.519 and a relative viability (Afatinib + Bortezomib; first compound 0.005 µM) of 1.03. It also gave a relative viability (Afatinib + Bortezomib; first compound 0.01581 µM) of 1.05, a relative viability (Afatinib + Bortezomib; first compound 0.05 µM) of 1 and a relative viability (Afatinib + Bortezomib; first compound 0.1581 µM) of 0.927. The relative viability (Afatinib + Bortezomib; first compound 0.5 µM) was 1.03, the relative viability (Afatinib + Foretinib; first compound 0.005 µM) was 1.03 and the relative viability (Afatinib + Foretinib; first compound 0.01581 µM) was 0.952. The relative viability (Afatinib + Foretinib; first compound 0.05 µM) was 0.865, the relative viability (Afatinib + Foretinib; first compound 0.1581 µM) was 0.753 and the relative viability (Afatinib + Foretinib; first compound 0.5 µM) was 0.928. For the same cell line, the relative viability (Afatinib + Pictilisib; first compound 0.005 µM) was 0.516, the relative viability (Afatinib + Pictilisib; first compound 0.01581 µM) was 0.531 and the relative viability (Afatinib + Pictilisib; first compound 0.05 µM) was 0.544. It also gave a relative viability (Afatinib + Pictilisib; first compound 0.1581 µM) of 0.529 and a relative viability (Afatinib + Pictilisib; first compound 0.5 µM) of 0.496.

Cell Line EPLC-272H has a relative viability (Afatinib + Palbociclib; first compound 0.005 µM) of 0.31, a relative viability (Afatinib + Palbociclib; first compound 0.01581 µM) of 0.294 and a relative viability (Afatinib + Palbociclib; first compound 0.05 µM) of 0.283. The relative viability (Afatinib + Palbociclib; first compound 0.1581 µM) was 0.284, the relative viability (Afatinib + Palbociclib; first compound 0.5 µM) was 0.292 and the relative viability (Afatinib + Bortezomib; first compound 0.005 µM) was 0.879. The relative viability (Afatinib + Bortezomib; first compound 0.01581 µM) was 0.88, the relative viability (Afatinib + Bortezomib; first compound 0.05 µM) was 0.905 and the relative viability (Afatinib + Bortezomib; first compound 0.1581 µM) was 0.78. For the same cell line, the relative viability (Afatinib + Bortezomib; first compound 0.5 µM) was 0.861, the relative viability (Afatinib + Foretinib; first compound 0.005 µM) was 0.492 and the relative viability (Afatinib + Foretinib; first compound 0.01581 µM) was 0.426. The relative viability (Afatinib + Foretinib; first compound 0.05 µM) was 0.406, the relative viability (Afatinib + Foretinib; first compound 0.1581 µM) was 0.381 and the relative viability (Afatinib + Foretinib; first compound 0.5 µM) was 0.355. For the same cell line, the relative viability (Afatinib + Pictilisib; first compound 0.005 µM) was 0.342, the relative viability (Afatinib + Pictilisib; first compound 0.01581 µM) was 0.301 and the relative viability (Afatinib + Pictilisib; first compound 0.05 µM) was 0.297. The relative viability (Afatinib + Pictilisib; first compound 0.1581 µM) was 0.324 and the relative viability (Afatinib + Pictilisib; first compound 0.5 µM) was 0.348.

H3255 showed a relative viability (Afatinib + Palbociclib; first compound 0.005 µM) of 0.267, a relative viability (Afatinib + Palbociclib; first compound 0.01581 µM) of 0.269 and a relative viability (Afatinib + Palbociclib; first compound 0.05 µM) of 0.289. The relative viability (Afatinib + Palbociclib; first compound 0.1581 µM) was 0.26, the relative viability (Afatinib + Palbociclib; first compound 0.5 µM) was 0.258 and the relative viability (Afatinib + Bortezomib; first compound 0.005 µM) was 0.252. The relative viability (Afatinib + Bortezomib; first compound 0.01581 µM) was 0.194, the relative viability (Afatinib + Bortezomib; first compound 0.05 µM) was 0.221 and the relative viability (Afatinib + Bortezomib; first compound 0.1581 µM) was 0.184. The relative viability (Afatinib + Bortezomib; first compound 0.5 µM) was 0.231, the relative viability (Afatinib + Foretinib; first compound 0.005 µM) was 0.861 and the relative viability (Afatinib + Foretinib; first compound 0.01581 µM) was 0.134. The relative viability (Afatinib + Foretinib; first compound 0.05 µM) was 0.2, the relative viability (Afatinib + Foretinib; first compound 0.1581 µM) was 0.216 and the relative viability (Afatinib + Foretinib; first compound 0.5 µM) was 0.188. The relative viability (Afatinib + Pictilisib; first compound 0.005 µM) was 0.173, the relative viability (Afatinib + Pictilisib; first compound 0.01581 µM) was 0.118 and the relative viability (Afatinib + Pictilisib; first compound 0.05 µM) was 0.132. The relative viability (Afatinib + Pictilisib; first compound 0.1581 µM) was 0.11 and the relative viability (Afatinib + Pictilisib; first compound 0.5 µM) was 0.104.

HARA was tested, and the relative viability (Afatinib + Palbociclib; first compound 0.005 µM) was 0.188, the relative viability (Afatinib + Palbociclib; first compound 0.01581 µM) was 0.242 and the relative viability (Afatinib + Palbociclib; first compound 0.05 µM) was 0.204. The relative viability (Afatinib + Palbociclib; first compound 0.1581 µM) was 0.189, the relative viability (Afatinib + Palbociclib; first compound 0.5 µM) was 0.197 and the relative viability (Afatinib + Bortezomib; first compound 0.005 µM) was 1.02. It also gave a relative viability (Afatinib + Bortezomib; first compound 0.01581 µM) of 0.763, a relative viability (Afatinib + Bortezomib; first compound 0.05 µM) of 0.683 and a relative viability (Afatinib + Bortezomib; first compound 0.1581 µM) of 0.836. The relative viability (Afatinib + Bortezomib; first compound 0.5 µM) was 0.754, the relative viability (Afatinib + Foretinib; first compound 0.005 µM) was 0.825 and the relative viability (Afatinib + Foretinib; first compound 0.01581 µM) was 0.451. The relative viability (Afatinib + Foretinib; first compound 0.05 µM) was 0.401, the relative viability (Afatinib + Foretinib; first compound 0.1581 µM) was 0.377 and the relative viability (Afatinib + Foretinib; first compound 0.5 µM) was 0.403. For the same cell line, the relative viability (Afatinib + Pictilisib; first compound 0.005 µM) was 0.429, the relative viability (Afatinib + Pictilisib; first compound 0.01581 µM) was 0.331 and the relative viability (Afatinib + Pictilisib; first compound 0.05 µM) was 0.16. For the same cell line, the relative viability (Afatinib + Pictilisib; first compound 0.1581 µM) was 0.206 and the relative viability (Afatinib + Pictilisib; first compound 0.5 µM) was 0.195.

HCC-15 gave a relative viability (Afatinib + Palbociclib; first compound 0.005 µM) of 0.743, a relative viability (Afatinib + Palbociclib; first compound 0.01581 µM) of 0.753 and a relative viability (Afatinib + Palbociclib; first compound 0.05 µM) of 0.702. For the same cell line, the relative viability (Afatinib + Palbociclib; first compound 0.1581 µM) was 0.755, the relative viability (Afatinib + Palbociclib; first compound 0.5 µM) was 0.746 and the relative viability (Afatinib + Bortezomib; first compound 0.005 µM) was 1.04. The relative viability (Afatinib + Bortezomib; first compound 0.01581 µM) was 1.09, the relative viability (Afatinib + Bortezomib; first compound 0.05 µM) was 1.04 and the relative viability (Afatinib + Bortezomib; first compound 0.1581 µM) was 1.04. The relative viability (Afatinib + Bortezomib; first compound 0.5 µM) was 1.03, the relative viability (Afatinib + Foretinib; first compound 0.005 µM) was 1.04 and the relative viability (Afatinib + Foretinib; first compound 0.01581 µM) was 1.15. For the same cell line, the relative viability (Afatinib + Foretinib; first compound 0.05 µM) was 1.08, the relative viability (Afatinib + Foretinib; first compound 0.1581 µM) was 1.07 and the relative viability (Afatinib + Foretinib; first compound 0.5 µM) was 0.988. The relative viability (Afatinib + Pictilisib; first compound 0.005 µM) was 0.806, the relative viability (Afatinib + Pictilisib; first compound 0.01581 µM) was 0.72 and the relative viability (Afatinib + Pictilisib; first compound 0.05 µM) was 0.647. The relative viability (Afatinib + Pictilisib; first compound 0.1581 µM) was 0.714 and the relative viability (Afatinib + Pictilisib; first compound 0.5 µM) was 0.66.

With HCC-44 the relative viability (Afatinib + Palbociclib; first compound 0.005 µM) was 1, the relative viability (Afatinib + Palbociclib; first compound 0.01581 µM) was 0.968 and the relative viability (Afatinib + Palbociclib; first compound 0.05 µM) was 1.05. The relative viability (Afatinib + Palbociclib; first compound 0.1581 µM) was 0.944, the relative viability (Afatinib + Palbociclib; first compound 0.5 µM) was 1.02 and the relative viability (Afatinib + Bortezomib; first compound 0.005 µM) was 1.04. It also gave a relative viability (Afatinib + Bortezomib; first compound 0.01581 µM) of 0.91, a relative viability (Afatinib + Bortezomib; first compound 0.05 µM) of 0.891 and a relative viability (Afatinib + Bortezomib; first compound 0.1581 µM) of 0.903. For the same cell line, the relative viability (Afatinib + Bortezomib; first compound 0.5 µM) was 1.01, the relative viability (Afatinib + Pictilisib; first compound 0.005 µM) was 0.619 and the relative viability (Afatinib + Pictilisib; first compound 0.01581 µM) was 0.619. It also gave a relative viability (Afatinib + Pictilisib; first compound 0.05 µM) of 0.638, a relative viability (Afatinib + Pictilisib; first compound 0.1581 µM) of 0.514 and a relative viability (Afatinib + Pictilisib; first compound 0.5 µM) of 0.533.
